By IC50 is commonly meant the point on the concentration scale where inhibition reaches its midpoint.

In data set [1] the test system is SK-N-MC. Description: Reduction of cellular 59Fe uptake from 59Fe-Transferrin in human SK-N-MC cells assessed as 59Fe level prelabeled with 59Fe2-Tf at 25 uM after 3 hrs relative to control. The data set is classed as functional. Also noted: scale not given: the % may be the effect or the level left.
Data set [2] in a line: Toxicity in intact human RBC assessed as methemoglobin formation using Fe(compound)2 complex at 25 uM after 3 hrs relative to free ligand. To be noted: erythrocyte.
Data set [3] in a line: Toxicity in intact human RBC assessed as methemoglobin formation at 25 uM after 3 hrs relative to untreated control. In kind it is cell-based. The following applies: erythrocyte.
In data set [4] the test system is SK-N-MC. Description: Cytotoxicity against human SK-N-MC cells assessed as growth inhibition after 72 hrs by MTT assay. The data set is classed as functional, cell-based. On the technique in general: Tetrazolium assays rely on reduction of a dye to a coloured formazan, in cell work by metabolically active cells.
A short description of data set [5]: Induction of ascorbate oxidation in citrate buffer in presence of 10 uM Fe3+ at 1 to 60 uM. The data set is classed as physicochemical.
Data set [6] is described as follows: Toxicity in human RBC lysates assessed as methemoglobin formation at 25 uM after 3 hrs (reference value: 1.2 +/- 8%). The following applies: erythrocyte. The data set is classed as cell-based, Lysate.
Data set [7] in a line: Toxicity in human RBC lysates assessed as methemoglobin formation at 25 uM after 3 hrs relative to control. To be noted: erythrocyte. Set-up: species or system Lysate.
Data set [8] in a line: Toxicity in human RBC lysates assessed as methemoglobin formation using Fe(compound)2 complex at 25 uM after 3 hrs relative to control. Also noted: species or system Lysate. To be noted: erythrocyte.
In a further data set the test system is MRC5. Description: Cytotoxicity against human MRC5 cells assessed as growth inhibition after 72 hrs by MTT assay. In kind it is cell-based. To be noted: MRC5, 72 h.
Data set [9] is described as follows: Toxicity in intact human RBC assessed as methemoglobin formation using Fe(compound)2 complex at 25 uM after 3 hrs relative to untreated control. The data set is classed as cell-based. The following applies: erythrocyte.
Data set [10] can be described thus: Therapeutic index, ratio of IC50 for human MRC5 cells to IC50 for human SK-N-MC cells. In kind it is cell-based. To be noted: MRC5 cells and SK-N-MC cells, read-out: Ratio IC50.

The structures appear in SMILES notation.

In the case of `CN(C)C(=S)NN=C(c1ccccn1)c1ccccn1`, the Activity with SK-N-MC [1] was 4%; in [5], “Active”; in [6] it was 12%. Further, the “fold change (FC)” value stood at 2.3 in data set [2] and 45 in data set [3]. The IC50 with SK-N-MC [4] turned out to be 7 nM.
Take `Cc1ccc(/C(=N\NC(=S)Nc2ccccc2)c2ccccn2)cc1`: the Activity result in [7], in data set [8], in data set [3] and in data set [9] was “Non-toxic” throughout. Also, the results for the concentration for half-maximal inhibition (IC50) with MRC5 and with SK-N-MC [4] were 1520 nM and 24 nM, respectively. For the same compound, in data set [10], the selectivity ratio was 63.
Take `NC(=S)N/N=C(\c1ccccc1)c1ccccn1`: the Activity entry is given as “Non-toxic” in [7]; “Non-toxic” in [8]; “Toxic” in data set [3]; “Toxic” in data set [9]; “Active” in data set [5]. Also, the IC50 was above 12500 nM in the data set on MRC5 and 3800 nM with SK-N-MC [4]. For the same compound, the selectivity ratio in data set [10] is above 3.
In the case of `Cc1ccc(/C(=N\NC(N)=S)c2ccccn2)cc1`, the Activity with SK-N-MC [1] is listed as 8%; in data set [7], “Toxic”; in data set [8] it was “Toxic”; in data set [3] it was “Toxic”; in data set [9] it was “Toxic”; in data set [5], “Active”. The IC50 is above 12500 nM in the data set with MRC5 and 146 nM in the data set on SK-N-MC [4]. In addition, in data set [10], the selectivity ratio was above 85.
As for `COc1ccc(/C(=N\NC(N)=S)c2ccccn2)cc1`, the Activity in the data set with SK-N-MC [1] is listed as 8%; in data set [7], “Non-toxic”; in [8], “Non-toxic”; in [3], “Toxic”; in data set [9], “Toxic”; in data set [5], “Active”. Besides, the IC50 in the data set with MRC5 was above 12500 nM; in the data set on SK-N-MC [4], 3950 nM. The selectivity ratio in data set [10] is above 3.
Consider `CCNC(=S)N/N=C(\c1ccc(C(C)(C)C)cc1)c1ccccn1`, for which the Activity entry in data set [7], in data set [8], in data set [3] and in data set [9] was “Non-toxic” each time. Further, the IC50 was found to be 2940 nM with MRC5 and 20 nM in the data set on SK-N-MC [4]. Besides, in data set [10], the selectivity ratio is 147.
As for `CC(=O)N(O)CCCCCNC(=O)CCC(=O)N(O)CCCCCNC(=O)CCC(=O)N(O)CCCCCN` [DEFEROXAMINE], the Activity in the data set on SK-N-MC [1] is 77%.
`COc1ccc(/C(=N\NC(=S)Nc2ccccc2)c2ccccn2)cc1`: the Activity entry in [7], in data set [8], in data set [3] and in [9] was “Non-toxic” throughout. The IC50 with MRC5 was determined as 864 nM; in the data set on SK-N-MC [4], 19 nM. Besides, the selectivity ratio in data set [10] is 45.
As for `CC(C)(C)c1ccc(/C(=N\NC(=S)Nc2ccccc2)c2ccccn2)cc1`, the Activity result in data set [7], in data set [8], in data set [3] and in [9] was “Non-toxic” throughout. Moreover, the IC50 in the data set on MRC5 came to 1890 nM; with SK-N-MC [4] it was 109 nM. Further, the selectivity ratio in [10] was determined as 17.
Consider `CCNC(=S)N/N=C(\c1ccccc1)c1ccccn1`, for which the Activity result in [7], in [8], in data set [3] and in data set [9] was “Non-toxic” in each case. Also, the IC50 was found to be 1490 nM in the data set on MRC5 and 14 nM in the data set with SK-N-MC [4]. Further, the selectivity ratio in data set [10] came out at 106.
Turning to `CC(C)(C)c1ccc(/C(=N\NC(N)=S)c2ccccn2)cc1`, the Activity entry in data set [7] is on record as “Non-toxic”; in [8], “Non-toxic”; in [3], “Non-toxic”; in [9] it was “Non-toxic”; in data set [5] it was “Active”. Further, the results for the IC50 with MRC5 and in the data set with SK-N-MC [4] were 814 nM and 14 nM, respectively. Also, the selectivity ratio in data set [10] worked out at 58.
`CCNC(=S)N/N=C(\c1ccc(OC)cc1)c1ccccn1`: the Activity in the data set on SK-N-MC [1] is listed as 8%; in data set [7] it was “Non-toxic”; in data set [8] it was “Non-toxic”; in data set [3], “Non-toxic”; in [9], “Non-toxic”. The values for the 50% inhibitory concentration (IC50) in the data set with MRC5 and in the data set with SK-N-MC [4] were 1650 nM and 16 nM, respectively. Moreover, in data set [10], the selectivity ratio came to 102.
In the case of `S=C(N/N=C(\c1ccccc1)c1ccccn1)Nc1ccccc1`, the Activity entry in data set [7], in data set [8], in data set [3] and in data set [9] was “Non-toxic” each time. In addition, the figures for the IC50 in the data set on MRC5 and in the data set with SK-N-MC [4] were 571 nM and 16 nM, respectively. The selectivity ratio in data set [10] was 36.
As to `COc1ccc(/C(=N\NC(=S)N(C)C)c2ccccn2)cc1`, the Activity in the data set on SK-N-MC [1] is on record as 8%; in data set [3] it was “Non-toxic”; in data set [9], “Non-toxic”; in data set [5], “Not Active”. The IC50 in the data set on MRC5 turned out to be 1140 nM; in the data set on SK-N-MC [4], 17 nM. In addition, in data set [10], the selectivity ratio stood at 66.
As for `CN(C)C(=S)N/N=C(\c1ccc(C(C)(C)C)cc1)c1ccccn1`, the results for the Activity result in data set [3], in data set [9] and in data set [5] were “Non-toxic”, “Non-toxic” and “Not Active”, respectively. In addition, the half-inhibitory concentration (IC50) with MRC5 stood at 1070 nM; with SK-N-MC [4], 72 nM. In addition, the selectivity ratio in [10] turned out to be 15.
`NC(=S)N/N=C/c1ncccc1N` [TRIAPINE]: the results for the Activity (in the data set with SK-N-MC [1]; in data set [6]) were 54% and 17%, respectively. Besides, the “fold change (FC)” value in [3] is 38.
Turning to `CN(C)C(=S)N/N=C(\c1ccccc1)c1ccccn1`, the IC50 in the data set with SK-N-MC [4] came to 5 nM. In addition, the selectivity ratio in data set [10] turned out to be 202. In addition, in data set [5], the Activity entry is reported as “Not Active”.
For the compound `CNC(=S)N/N=C(\c1ccc(C(C)(C)C)cc1)c1ccccn1`, the Activity entry in data set [7], in data set [8], in data set [3] and in data set [9] was “Non-toxic” throughout. Besides, the IC50 was determined as 2460 nM in the data set with MRC5 and 15 nM in the data set on SK-N-MC [4]. In [10], the selectivity ratio was 164.
As for `Cc1ccc(/C(=N\NC(=S)N(C)C)c2ccccn2)cc1`, the Activity is 8% in the data set on SK-N-MC [1], “Non-toxic” in [3], “Non-toxic” in data set [9] and “Not Active” in data set [5]. The figures for the IC50 in the data set with MRC5 and in the data set on SK-N-MC [4] were 921 nM and 7 nM, respectively. Further, the selectivity ratio in [10] is 131.
Turning to `CNC(=S)N/N=C(\c1ccc(C)cc1)c1ccccn1`, the Activity is on record as 8% with SK-N-MC [1]; “Toxic” in data set [7]; “Toxic” in data set [8]; “Non-toxic” in data set [3]; “Non-toxic” in [9]. The IC50 in the data set with MRC5 stood at 2120 nM; in the data set with SK-N-MC [4], 15 nM. Further, the selectivity ratio in [10] was 141.
As for `CNC(=S)N/N=C(\c1ccccc1)c1ccccn1`, the Activity result in data set [7], in data set [8], in data set [3] and in [9] was “Non-toxic” each time. In the data set on SK-N-MC [4], the IC50 is 20 nM. Moreover, in data set [10], the selectivity ratio came to 116.
Turning to `CNC(=S)N/N=C(\c1ccc(OC)cc1)c1ccccn1`, the Activity with SK-N-MC [1] is listed as 8%; in [7] it was “Non-toxic”; in [8], “Non-toxic”; in data set [3] it was “Non-toxic”; in data set [9] it was “Non-toxic”. Moreover, the IC50 with MRC5 stood at 2030 nM; with SK-N-MC [4] it was 22 nM. For the same compound, in data set [10], the selectivity ratio came out at 92.
For the compound `CCNC(=S)N/N=C(\c1ccc(C)cc1)c1ccccn1`, the Activity with SK-N-MC [1] is 8%; in [7], “Non-toxic”; in data set [8] it was “Non-toxic”; in data set [3], “Non-toxic”; in data set [9], “Non-toxic”. For the same compound, the IC50 with MRC5 came out at 2140 nM; in the data set with SK-N-MC [4], 13 nM. Also, the selectivity ratio in [10] turned out to be 164.

For the origin of these results see ChEMBL document CHEMBL2311386, “Alkyl substituted 2'-benzoylpyridine thiosemicarbazone chelators with potent and selective anti-neoplastic activity: novel ligands that limit methemoglobin formation” (J Med Chem, 2013).
